Measurements from patent US20070253957A1, “Substituted N-Aryl-1H-Pyrazolo[3,4-B]Quinolin-4-Amines and Analogs as Activators of Caspases and Inducers of Apoptosis” (Cytovia, Inc., priority 2004, published 2007).

System: T-47D
Test: Caspase cascade activation assay (N-(Ac-DEVD)-N'-ethoxycarbonyl-R110 fluorogenic substrate) in T-47D cells
Type: cell-based, Human
Conditions: 24 h incubation; for Caspase Activity Ratio: ratio of net RFU (T=3 h) to that of control samples, 0.16 to 10 μM final; for EC50: Homo sapiens, T47D, sigmoidal dose-response calculation, read-out: Caspase Potency EC50
Method: Human breast cancer cell lines T-47D was grown according to media component mixtures designated by American Type Culture Collection+10% FCS (mvitrogen Corporation), in a 5% CO2-95% humidity incubator at 37° C. T-47D and ZR-75-1 cells were maintained at a cell density between 30 and 80% confluency and for HL-60 at a cell density of 0.1 to 0.6×10^6 cells/mL. Cells were harvested at 600×g and resuspended at 0.65×10^6 cells/mL into appropriate media+10% FCS. An aliquot of 45 μL of cells was added to a well of a 96-well microtiter plate containing 5 μL of a 10% DMSO in RPMI-1640 media solution containing 1.6 to 100 μM of 1,3-dimethyl-N-(4-methoxyphenyl)-1H-pyrazolo[3,4-b]quinolin-4-amine or other test compound (0.16 to 10 μM final). An aliquot of 45 μL of cells was added to a well of a 96-well microtiter plate containing 5 μL of a 10% DMSO in RPMI-1640 media solution without test compound as the control sample. The samples were mixed by agitation and then incubated at 37° C. for 24 h in a 5% CO2-95% humidity incubator. After incubation, the samples were removed from the incubator and 50 μL of a solution containing 20 μM of N-(Ac-DEVD)-N′-ethoxycarbonyl-R110 fluorogenic substrate (SEQ ID NO:1) (Cytovia, Inc.; U.S. Pat. No. 6,335,429), 20% sucrose (Sigma), 20 mM DTT (Sigma), 200 mM NaCl (Sigma), 40 mM Na PIPES buffer pH 7.2 (Sigma), and 500 μg/mL lysolecithin (Calbiochem) was added. The samples were mixed by agitation and incubated at room temperature. Using a fluorescent plate reader (Model 1420 Wallac Instruments), an initial reading (T=0) was made about 1-2 min after addition of the substrate solution, employing excitation at 485 nm and emission at 530 nm, to determine the background fluorescence of the control sample. After about 3 h of incubation, the samples were read for fluorescence as above (T=3 h).
The Relative Fluorescence Unit values (RFU) were used to calculate the sample readings as follows: RFU(T=3h)−Control RFU(T=0)=Net RFU(T=3h)
The activity of caspase cascade activation was determined by the ratio of the net RFU value for 1,3-dimethyl-N-(4-methoxyphenyl)-1H-pyrazolo[3,4-b]quinolin-4-amine to that of control samples. The EC50 (nM) was determined by a sigmoidal dose-response calculation (Prism 2.0, GraphPad Software Inc.).

| SMILES | Caspase Activity Ratio | EC50 [µM] |
| --- | --- | --- |
| CC(=O)c1cccc(Nc2c3ccccc3nc3c2c(C)nn3C)c1 [Example 5, N-(3-Acetylphenyl)-1,3-dimethyl-1H-pyrazolo[3,4-b]quinolin-4-amine] | 1.0 | > 10 |
| Cc1nn(C)c2nc3ccccc3c(Nc3ccc(C(N)=O)cc3)c12 [Example 6, N-(4-Carbamoylphenyl)-1,3-dimethyl-1H-pyrazolo[3,4-b]quinolin-4-amine] | 1.0 | > 10 |
| COc1ccc(Nc2c3ccccc3nc3c2c(C)nn3C)cn1 [Example 7, 1,3-Dimethyl-N-(6-methoxypyridin-3-yl)-1H-pyrazolo[3,4-b]quinolin-4-amine] | 1.0 | > 10 |
| COc1cccc(Nc2c3ccccc3nc3c2c(C)nn3C)c1 [Example 8, 1,3-Dimethyl-N-(3-methoxyphenyl)-1H-pyrazolo[3,4-b]quinolin-4-amine] | 3.9 | 5.83 |
| COc1ccc(Sc2c3ccccc3nc3c2c(C)nn3C)cc1 [Example 12, 4-(4-Methoxyphenylthio)-1,3-dimethyl-1H-pyrazolo[3,4-b]quinoline] | 9.3 | 4.23 |
| CC(=O)c1ccc(Oc2c3ccccc3nc3c2c(C)nn3C)cc1 [Example 13, 4-(4-Acetylphenoxy)-1,3-dimethyl-1H-pyrazolo[3,4-b]quinoline] | 7.5 | 4.32 |
| CC(C)C(=O)c1cccc(N(C)c2c3c(nc4ccccc24)CCC3)c1 [Example 16, N-(3-Isobutyrylphenyl)-N-methyl-2,3-dihydro-1H-cyclopenta[b]quinolin-9-amine] | 1.1 | > 10 |
| CCOC(=O)c1ccc(N(C)c2c3c(nc4ccccc24)CCC3)cc1 [Example 17, N-(4-(Ethoxycarbonyl)phenyl)-N-methyl-2,3-dihydro-1H-cyclopenta[b]quinolin-9-amine] | 9.3 | 5.12 |
| CC(=O)c1ccc(Nc2c3ccccc3nc3c2cnn3C)cc1 [Example 18, N-(4-Acetylphenyl)-1-methyl-1H-pyrazolo[3,4-b]quinolin-4-amine] | 8.5 | 0.841 |
| CC(=O)c1ccc(Nc2c3ccccc3nc3c2c(C(C)C)nn3C)cc1 [Example 21, N-(4-Acetylphenyl)-1-methyl-3-isopropyl-1H-pyrazolo[3,4-b]quinolin-4-amine] | 1.1 | > 10 |
| CCc1ccc(Nc2c3ccccc3nc3c2c(C)nn3C)cc1 [Example 22, N-(4-Ethylphenyl)-1,3-dimethyl-1H-pyrazolo[3,4-b]quinolin-4-amine] | 1.1 | > 10 |
| CC(=O)Nc1ccc(Nc2c3ccccc3nc3c2c(C)nn3C)cc1 [Example 32, N-(4-Acetamidophenyl)-1,3-dimethyl-1H-pyrazolo[3,4-b]quinolin-4-amine] | 1.1 | > 10 |
| Cc1nn(C)c2nc3ccccc3c(Nc3ccc(S(C)(=O)=O)cc3)c12 [Example 34, 1,3-Dimethyl-N-(4-methylsulfonylphenyl)-1H-pyrazolo[3,4-b]quinolin-4-amine] | 1.1 | > 10 |
| Cc1nn(C)c2nc3ccccc3c(Nc3ccc([S+](C)[O-])cc3)c12 (stereo not drawn) [Example 39, 1,3-Dimethyl-N-(4-methylsulfinylphenyl)-1H-pyrazolo[3,4-b]quinolin-4-amine] | 1.1 | > 10 |
| Cc1nn(C)c2nc3ccccc3c(Nc3ccc(C(=O)C(C)C)cc3)c12 [Example 44, N-(4-Isobutyrylphenyl)-1,3-dimethyl-1H-pyrazolo[3,4-b]quinolin-4-amine] | 4.3 | 0.248 |
| Cc1nn(C)c2nc3ccccc3c(Nc3ccc(N)cc3)c12.Cl [Example 45, N-(4-Aminophenyl)-1,3-dimethyl-1H-pyrazolo[3,4-b]quinolin-4-amine hydrochloride] | 1.1 | > 10 |
| Cc1nn(C)c2nc3ccccc3c(Nc3ccc(N=[N+]=[N-])cc3)c12 [Example 46, N-(4-Azidophenyl)-1,3-dimethyl-1H-pyrazolo[3,4-b]quinolin-4-amine] | 1.1 | > 10 |
| Cc1nn(C)c2nc3ccccc3c(Nc3ccc(C(=O)O)cc3)c12 [Example 47, N-(4-Carboxylphenyl)-1,3-dimethyl-1H-pyrazolo[3,4-b]quinolin-4-amine] | 1.1 | > 10 |
| Cc1nn(C)c2nc3ccccc3c(Nc3ccc(C(=O)C(F)(F)F)cc3)c12 [Example 48, 1,3-Dimethyl-N-(4-(2,2,2-trifluoroacetyl)phenyl)-1H-pyrazolo[3,4-b]quinolin-4-amine] | 1.1 | > 10 |
| CCc1ccccc1Nc1c2c(nc3ccccc13)CCC2 [N-(2-Ethylphenyl)-2,3-dihydro-1H-cyclopenta[b]quinolin-9-amine] | 6.5 | 2.96 |
| COc1ccccc1Nc1c2c(nc3ccccc13)CCC2 [N-(2-Methoxyphenyl)-2,3-dihydro-1H-cyclopenta[b]quinolin-9-amine] | 7.5 | 2.45 |
| COC(=O)c1cccc(Nc2c3c(nc4ccccc24)CCC3)c1 [N-(3-(Methoxycarbonyl)phenyl)-2,3-dihydro-1H-cyclopenta[b]quinolin-9-amine] | 5.6 | 3.04 |
| CC(=O)c1cccc(Nc2c3c(nc4ccccc24)CCC3)c1 [N-(3-Acetylphenyl)-2,3-dihydro-1H-cyclopenta[b]quinolin-9-amine] | 8.8 | 0.304 |
| Cc1ccc2nc3c(c(Nc4cccc(O)c4)c2c1)CCC3 [N-(3-Hydroxyphenyl)-7-methyl-2,3-dihydro-1H-cyclopenta[b]quinolin-9-amine] | 3.7 | 5.53 |
| CCOC(=O)c1ccc(Nc2c3c(nc4ccccc24)CCC3)cc1 [N-(4-(Ethoxycarbonyl)phenyl)-2,3-dihydro-1H-cyclopenta[b]quinolin-9-amine] | 9.5 | 1.18 |
| COC(=O)c1ccc(Nc2c3c(nc4ccccc24)CCC3)cc1 [N-(4-(Methoxycarbonyl)phenyl)-2,3-dihydro-1H-cyclopenta[b]quinolin-9-amine] | 4.8 | 0.34 |
| CC(=O)c1ccc(Nc2c3ccccc3nc3c2c(C)nn3C)cc1 [N-(4-Acetylphenyl)-1,3-dimethyl-1H-pyrazolo[3,4-b]quinolin-4-amine] | 4.2 | 0.314 |
